Experiments:
[1] = system: differentiated L6-myotubes; assay: Glucose uptake screen (Biological example 1 of WO 2019/053427); assay type: cell-based; details: compound at 10 μM, activity relative to isoproterenol at 10 μM, read-out: Biological example 1 of WO 2019/053427 (GU)
Outline: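 Rat L6 myoblasts were differentiated into myotubes over 7 days in 2% FBS, then serum-starved overnight. Cells were stimulated with 1×10^−5 M compound plus β2 antagonist ICI-118551 for 1 h 40 min and re-dosed for 20 min in glucose-free medium. Uptake of 50 nM ^3H-2-deoxyglucose over 10 min was counted after NaOH lysis.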

[2] = system: differentiated L6-myotubes; assay: cAMP production relative to isoprenaline (Biological example 2 of WO 2019/053427); assay type: cell-based; details: 0.25 h, compound at 10 μM, activity relative to isoproterenol at 10 μM
Outline: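 Differentiated L6 myotubes stimulated 15 min with test compound or isoprenaline, each at final 1×10^−5 M, in HBSS with 1% BSA, 5 mM HEPES, 1 mM IBMX, pH 7.4. cAMP production by the compound expressed relative to that induced by the same concentration of isoprenaline.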

| Structure (SMILES) | Emax at 10 µM [1] [%] | Emax at 10 µM [2] [%] |
| --- | --- | --- |
| CS(=O)(=O)N(Cc1ccccc1)c1cccc(CC23CCC([C@@H](O)c4cccc(F)c4)(CC2)N3)c1 [Compound 512, (S)-[4-({m-[(benzyl)-N-mesylamino]phenyl}methyl)-7-azabicyclo[2.2.1]hept-1-yl](m-fluorophenyl)methanol] | < 25 | < 25 |
| CC12CC(C1)[C@H]([C@@H](O)c1cccc(N)c1F)N2 [Compound 243, (S)-{(R)-1-methyl-2-azabicyclo[2.1.1]hex-3-yl}(3-amino-2-fluorophenyl)methanol] | 50 to 75 | < 25 |
| CC(=O)N[C@H]1CC[C@@H](CC(C)(C)NC[C@H](O)c2cncc(F)c2)CC1 [Compound 467, N-[(1S,4s)-4-{2-[(R)-2-(5-fluoro-3-pyridyl)-2-hydroxyethylamino]-2-methylpropyl}cyclohexyl]acetamide] | > 75 | < 25 |
| CCCCNCC(O)c1cccnc1 (stereo not shown) [Compound 49, 2-(butylamino)-1-(3-pyridyl)-1-ethanol] | 50 to 75 | < 25 |
| CC12CC(C1)[C@@H]([C@H](O)c1ccccc1F)N2 [Compound 213, (R)-{(S)-1-methyl-2-azabicyclo[2.1.1]hex-3-yl}(o-fluorophenyl)methanol] | > 75 | < 25 |
| CO[C@H]1CC[C@@H](CCCNC[C@H](O)c2cccc(F)c2)CC1 [Compound 258, (R)-1-(m-fluorophenyl)-2-{3-[(1s,4R)-4-methoxycyclohexyl]propyl-amino}-1-ethanol] | > 75 | 50 to 75 |
| CC(C)(C[C@H]1CC[C@@H](N)CC1)NC[C@H](O)c1cncc(F)c1 [Compound 466, (R)-2-{1,1-dimethyl-2-[(1s,4S)-4-aminocyclohexyl]ethylamino}-1-(5-fluoro-3-pyridyl)-1-ethanol] | 50 to 75 | < 25 |
| CO[C@H]1CC[C@H](C[C@H]2CC[C@H]([C@H](O)c3cccc(F)c3)N2)CC1 [Compound 335, (R)-[(2R,5R)-5-{[(1r,4R)-4-methoxycyclohexyl]methyl}-2-pyrrolidinyl](m-fluorophenyl)methanol] | > 75 | < 25 |
| CCC[C@@H]1CC[C@H]([C@@H](O)c2cccc(O)c2)N1 [Compound 127, m-{(S)-[(2R,5R)-5-propyl-2-pyrrolidinyl]hydroxymeth-yl}phenol] | 25 to 50 | < 25 |
| CC1(C)CCC[C@H]([C@@H](O)c2cccc(F)c2)N1 [Compound 101, (S)-[(R)-6,6-dimethyl-2-piperidyl](m-fluorophenyl)methanol] | 25 to 50 | < 25 |
| CC12CC(C1)[C@@H]([C@@H](O)c1cccc(F)c1)N2 [Compound 189, (S)-{(S)-1-methyl-2-azabicyclo[2.1.1]hex-3-yl}(m-fluorophenyl)methanol] | 50 to 75 | < 25 |
| O[C@@H](c1cccc(F)c1)C12CCC(COCc3ccc(Cl)cc3)(CC1)N2 [Compound 395, (S)-(4-{[(p-chlorophenyl)methoxy]methyl}-7-azabicyclo[2.2.1]hept-1-yl)(m-fluorophenyl)methanol] | 50 to 75 | < 25 |
| CCC[C@H]1CC[C@@H]([C@@H](O)c2cccc(F)c2)N1 [Compound 131, (S)-[(2S,5S)-5-propyl-2-pyrrolidinyl](m-fluorophenyl)methanol] | 50 to 75 | < 25 |
| O[C@H](c1cncc(F)c1)[C@H]1CC[C@@H](Cc2ccc(Cl)cc2)N1 [Compound 404, (R)-{(2R,5S)-5-[(p-chlorophenyl)methyl]-2-pyrrolidinyl}(5-fluoro-3-pyridyl)methanol] | > 75 | < 25 |
| CN(C)S(=O)(=O)[C@H]1CC[C@H](CC(C)(C)NC[C@H](O)c2cncc(F)c2)CC1 [Compound 465, (R)-2-{1,1-dimethyl-2-[(1r,4R)-4-(dimethylaminosulfonyl)cyclohexyl]ethylamino}-1-(5-fluoro-3-pyridyl)-1-ethanol] | 50 to 75 | 25 to 50 |
| CC(C)(NC[C@H](O)c1cncc(F)c1)[C@H]1CC[C@@H](O)CC1 [Compound 286, (R)-1-(5-fluoro-3-pyridyl)-2-{1-methyl-1-[(1s,4S)-4-hydroxycyclohexyl]ethyl-amino}-1-ethanol] | 25 to 50 | < 25 |
| CCC[C@@H]1CCCC[C@H]([C@H](O)c2cncc(F)c2)N1 [Compound 219, (R)-[(2R,7R)-7-propyl-2-azepanyl](5-fluoro-3-pyridyl)methanol] | < 25 | < 25 |
| CCC[C@H]1CC[C@H]([C@H](O)c2cccc(F)c2)N1 [Compound 124, (R)-[(2R,5S)-5-propyl-2-pyrrolidinyl](m-fluorophenyl)methanol] | 50 to 75 | < 25 |

| Structure (SMILES) | Emax at 10 µM [1] [%] | Emax at 10 µM [2] [%] |
| --- | --- | --- |
| O[C@H](c1cccc(F)c1)C12CCC(COc3ccc(Cl)cc3)(CC1)N2 [Compound 441, (R)-{4-[(p-chlorophenoxy)methyl]-7-azabicyclo[2.2.1]hept-1-yl}(m-fluorophenyl)methanol] | > 75 | < 25 |
| O[C@H](c1cccc(F)c1)C12CCC(Cc3ccccc3)(CC1)N2 [Compound 388, (R)-(4-benzyl-7-azabicyclo[2.2.1]hept-1-yl)(m-fluorophenyl)methanol] | > 75 | 25 to 50 |
| CCC[C@H](C)NC[C@H](O)c1cccc(F)c1 [Compound 51, (R)-2-[(S)-1-methylbutylamino]-1-(m-fluorophenyl)-1-ethanol] | > 75 | < 25 |
| Cn1ccc([C@@H](O)CNC(C)(C)C)cc1=O [Compound 98, 4-[(R)-2-(tert-butylamino)-1-hydroxyethyl]-1-methyl-2(1H)-pyridinone] | > 75 | < 25 |
| O[C@@H](CNCCC[C@H]1CC[C@@H](OCc2ccccc2)CC1)c1cccc(F)c1 [Compound 277, (R)-1-(m-fluorophenyl)-2-{3-[(1s,4R)-4-(benzyloxy)cyclohexyl]pro-pylamino}-1-ethanol] | 25 to 50 | < 25 |
| CC1(C)C[C@@H]([C@@H](O)c2cccc(F)c2)N1 [Compound 199, (S)-[(S)-4,4-dimethyl-2-azetidinyl](m-fluorophenyl)methanol] | 25 to 50 | < 25 |
| CO[C@H]1CC[C@H](C[C@@H]2CC[C@H]([C@@H](O)c3ccccc3F)N2)CC1 [Compound 336] | 25 to 50 | < 25 |
| COc1ccc(CCC23CCC([C@H](O)c4cncc(F)c4)(CC2)N3)cc1 [Compound 542, (R)-(5-fluoro-3-pyridyl){4-[2-(p-methoxyphenyl)ethyl]-7-azabicyclo[2.2.1]hept-1-yl}methanol] | 50 to 75 | 25 to 50 |
| COc1ccc(C[C@H]2CC[C@H]([C@@H](O)c3cncc(F)c3)N2)cc1 [Compound 380, (S)-{(2R,5R)-5-[(p-methoxyphenyl)methyl]-2-pyrrolidinyl}(5-fluoro-3-pyridyl)methanol] | > 75 | < 25 |
| COC(=O)[C@H]1CC[C@H](C(C)(C)NC[C@H](O)c2cncc(F)c2)CC1 [Compound 370, (1R,4r)-8-[(R)-2-(5-fluoro-3-pyridyl)-2-hydroxyethylamino]-7-methoxy-p-menthan-7-one] | > 75 | < 25 |
| CC(C)(C[C@H]1CC[C@@H](O)CC1)NC[C@H](O)c1cccc(F)c1 [Compound 302, (R)-2-{1,1-dimethyl-2-[(1s,4S)-4-hydroxycyclohexyl]ethylamino}-1-(m-fluorophenyl)-1-ethanol] | 50 to 75 | < 25 |
| O[C@@H](c1cncc(F)c1)C12CCC(C/C=C/c3ccccc3)(CC1)N2 [Compound 529, (S)-{4-[(E)-3-phenyl-2-propenyl]-7-azabicyclo[2.2.1]hept-1-yl}(5-fluoro-3-pyridyl)methanol] | 25 to 50 | < 25 |
| CN(C)S(=O)(=O)[C@H]1CC[C@@H](CC(C)(C)NC[C@H](O)c2cccc(F)c2)CC1 [Compound 470, (R)-2-{1,1-dimethyl-2-[(1s,4S)-4-(dimethylaminosulfonyl)cyclohexyl]ethylamino}-1-(m-fluorophenyl)-1-ethanol] | > 75 | 25 to 50 |
| CC(=O)N[C@H]1CC[C@@H](C[C@@H]2CC[C@H]([C@@H](O)c3cccc(F)c3)N2)CC1 [Compound 483, N-[(1R,4s)-4-({(2S,5R)-5-[(S)-(m-fluorophenyl)hydroxymethyl]-2-pyrrolidinyl}methyl)cyclohexyl]acetamide] | < 25 | < 25 |
| CCC[C@H]1CCC[C@H]([C@@H](O)c2ccc(F)c(F)c2)N1 [Compound 65, (S)-[(2R,6S)-6-propyl-2-piperidyl](3,4-difluorophenyl)methanol] | 25 to 50 | < 25 |
| COC(=O)[C@H]1CC[C@H](C(C)(C)NC[C@H](O)c2cccc(F)c2)CC1 [Compound 367, (1R,4r)-8-[(R)-2-(m-fluorophenyl)-2-hydroxyethylamino]-7-methoxy-p-menthan-7-one] | > 75 | 25 to 50 |
| CCS(=O)(=O)N[C@H]1CC[C@@H](CC(C)(C)NC[C@H](O)c2cccc(F)c2)CC1 [Compound 524, (R)-2-{1,1-dimethyl-2-[(1s,4S)-4-(ethylsulfonylamino)cyclohexyl]ethylamino}-1-(m-fluorophenyl)-1-ethanol] | 50 to 75 | < 25 |

— patent US20260256751A1, “COMBINATION OF BETA-2-ADRENERGIC RECEPTOR AGONISTS AND GLP-1 RECEPTOR AGONISTS FOR USE IN TREATING HYPERGLYCAEMIA” (ATROGI AB, priority 2023, published 2026)
